Reference: patent publication US20230271950A1, “ANTIBACTERIAL PICOLINAMIDE COMPOUNDS” (University of Notre Dame Du Lac, priority 2020, published 2023)

System: C. difficile
Test: MIC by broth microdilution against C. difficile strains
Format: cell-based, Clostridioides difficile

Measured: MIC

O=C(O)c1ccc2oc(NC(=O)c3cc(Oc4cccc(OC(F)(F)F)c4)ccn3)nc2c1 [Compound 1, Sodium 2-(4-(3-(trifluoromethoxy)phenoxy)picolinamido)benzo[d]oxazole-5-carboxylate]
0.125 µg/mL: C. difficile 23691 (VR, vancomycin-resistant), Table 7 | C. difficile 23691, Table 9 | C. difficile 24923 (VR, vancomycin-resistant), Table 7 | C. difficile 24923, Table 9 | C. difficile 27081 (FR, fidaxomicin-resistant), Table 7 | C. difficile 27081, Table 9 | C. difficile 27173 (MR, metronidazole-resistant), Table 7 | C. difficile 27173, Table 9 | C. difficile ATCC43255, Table 7 | C. difficile ATCC43255, Table 9 | C. difficile ATCC43598, Table 9 | C. difficile BAA-1801, Table 9 | C. difficile BAA-1804, Table 9 | C. difficile BAA-1812, Table 9 | C. difficile BAA-1814, Table 9 | C. difficile BAA-1870, Table 7 | C. difficile BAA-1870, Table 9 | C. difficile HM-89, Table 9 | C. difficile HM-745, Table 9 | C. difficile HM-746, Table 9 | C. difficile HM-747, Table 9 | C. difficile NR49292, Table 7 | C. difficile NR49292, Table 9 | C. difficile NR49310, Table 7 | C. difficile NR49310, Table 9 | C. difficile NR-13427, Table 9 | C. difficile NR-13428, Table 9 | C. difficile NR-13430, Table 9 | C. difficile NR-13434, Table 9 | C. difficile NR-13435, Table 9 | C. difficile NR-13436, Table 9 | C. difficile NR-13437, Table 9 | C. difficile NR-13438, Table 9 | C. difficile NR-13553, Table 9 | C. difficile NR-32882, Table 9 | C. difficile NR-32883, Table 9 | C. difficile NR-32884, Table 9 | C. difficile NR-32886, Table 9 | C. difficile NR-32887, Table 9 | C. difficile NR-32888, Table 9 | C. difficile NR-32889, Table 9 | C. difficile NR-32892, Table 9 | C. difficile NR-32897, Table 9 | C. difficile NR-32900, Table 9 | C. difficile NR-32904, Table 9 | C. difficile NR-49277, Table 9 | C. difficile NR-49278, Table 9 | C. difficile NR-49279, Table 9 | C. difficile NR-49280, Table 9 | C. difficile NR-49282, Table 9 | C. difficile NR-49286, Table 9 | C. difficile NR-49288, Table 9 | C. difficile NR-49290, Table 9 | C. difficile NR-49291, Table 9 | C. difficile NR-49293, Table 9 | C. difficile NR-49295, Table 9 | C. difficile NR-49296, Table 9 | C. difficile NR-49299, Table 9 | C. difficile NR-49300, Table 9 | C. difficile NR-49301, Table 9 | C. difficile NR-49303, Table 9 | C. difficile NR-49307, Table 9 | C. difficile NR-49308, Table 9 | C. difficile NR-49309, Table 9 | C. difficile NR-49312, Table 9 | C. difficile NR-49314, Table 9 | C. difficile NR-49315, Table 9 | C. difficile NR-49316, Table 9 | C. difficile NR-49317, Table 9 | C. difficile NR-49319, Table 9 | C. difficile NR-49320, Table 9 | C. difficile NR-49323, Table 9 | C. difficile NR-49324, Table 9 | C. difficile NR-49325, Table 9 | C. difficile NR-49326, Table 9 | C. difficile NR-49329, Table 9 | C. difficile, Table 8 | Clostridioides difficile
